Measured values published in patent publication US12195430B1, “6-(4,5-bis(4-bromophenyl)-2-(4-methoxyphenyl)-1H-imidazol-1-yl)hexanoic acid as an antimicrobial compound” (KING FAISAL UNIVERSITY, priority 2023, dated 2025).

Experiments:
Format in all cases: cell-based
[1] = system: Staphylococcus aureus; experiment: Agar plate disc-diffusion, antibacterial inhibition zone; conditions: nutrient agar, 37° C., 48 h
Protocol: (§1) The agar plate disc-diffusion method was applied. […] The discs were then placed onto the surface of agar plates (nutrient agar for bacteria and Sabouraud's dextrose agar for fungi) seeded with the test organism. Each plate contained 15 mL of the agar medium, previously seeded with 0.2 mL of the broth culture of each organism pregrown for 18 h. The plates were incubated at 37° C. for 48 h, and 72 h for fungi. The inhibition zones was measured in mm. Discs impregnated with DMSO were used as a control, and its inhibition zone was subtracted from the tested compound actual inhibition zone.

[2] = system: Pseudomonas aeruginosa; experiment: as above; conditions: nutrient agar, 37° C., 48 h
Protocol: as §1

[3] = system: Bacillus cereus; experiment: as above; conditions: nutrient agar, 37° C., 48 h
Protocol: as §1

[4] = system: Escherichia coli; experiment: as above; conditions: nutrient agar, 37° C., 48 h
Protocol: as §1

[5] = system: Aspergillus flavus; experiment: Agar plate disc-diffusion, antifungal inhibition zone; conditions: Sabouraud's dextrose agar, 72 h
Protocol: as §1

[6] = system: Chrysosporium keratinophilum; experiment: as above; conditions: Sabouraud's dextrose agar, 72 h
Protocol: as §1

[7] = A = concentration of comp. = 10,000 μL
[8] = B = concentration of comp. = 30,000 μL
[9] = C = concentration of comp. = 50,000 μL

Row | SMILES | inhibition zone, Staphylococcus aureus [1, 7] [mm] | inhibition zone, Staphylococcus aureus [1, 8] [mm] | inhibition zone, Staphylococcus aureus [1, 9] [mm] | inhibition zone, Pseudomonas aeruginosa [2, 7] [mm] | inhibition zone, Pseudomonas aeruginosa [2, 8] [mm] | inhibition zone, Pseudomonas aeruginosa [2, 9] [mm] | inhibition zone, Bacillus Cereus [3, 7] [mm] | inhibition zone, Bacillus Cereus [3, 8] [mm] | inhibition zone, Bacillus Cereus [3, 9] [mm] | inhibition zone, Escherichia coli [4, 7] [mm] | inhibition zone, Escherichia coli [4, 8] [mm] | inhibition zone, Escherichia coli [4, 9] [mm] | inhibition zone, Aspergillus flavus [5, 7] [mm] | inhibition zone, Aspergillus flavus [5, 8] [mm] | inhibition zone, Aspergillus flavus [5, 9] [mm] | inhibition zone, Chrysosporium keratinophilum [6, 7] [mm] | inhibition zone, Chrysosporium keratinophilum [6, 8] [mm] | inhibition zone, Chrysosporium keratinophilum [6, 9] [mm]
1 | COc1ccc(-c2nc(-c3ccc(Br)cc3)c(-c3ccc(Br)cc3)n2CCCCCC(=O)O)cc1 [V, 6-(4,5-bis(4-bromophenyl)-2-(4-methoxyphenyl)-1H-imidazol-1-yl)hexanoic acid] | 21 | 28 | 38 | 26 | 28 | 40 | 18 | 20 | 35 | 27 | 35 | 49 | 25 | 28 | 35 | 25 | 27 | 47
2 | O=C(O)c1cn(C2CC2)c2cc(N3CCNCC3)c(F)cc2c1=O [Cip., reference compound] | – | – | – | – | – | – | – | 31 | – | – | – | – | 28 | 31 | 43 | – | 33 | 55
